Consider 26 molecules from US20090209536A1, “AMINOQUINAZOLINE CANNABINOID RECEPTOR MODULATORS FOR TREATMENT OF DISEASE” (KALYPSYS, INC., priority 2007, published 2009).

Molecules are shown by their SMILES. Read-outs that look alike come from different tables or passages of the source.

Test [1] deals with T1, human cannabinoid receptor type 1 (Homo sapiens, UniProt P21554).
T1 construct: purchased Perkin Elmer RBHCB1M; host or cells: HEK 293 EBNA cells
Kind of test: Human CB1 Radioligand Binding Assay (basis of selectivity, CB2 vs. CB1). The note with it: CB1: HEK 293 EBNA cells expressing human CB1; CB2: CHO CB2 membranes. Here is the method: 2. Human CB1 Radioligand Binding Assay
The incubation buffer was composed of 50 mM Tris-HCl pH 7.4, 2.5 mM EDTA, 5 mM MgCl2, 5.0 mg/ml fatty acid free BSA and the wash buffer was composed of 50 mM Tris-HCl pH 7.4, 2.5 mM EDTA, 5 mM MgCl2, 0.5 mg/ml fatty acid free BSA.

In test [2] the target is T2, human cannabinoid receptor type 2 (Homo sapiens, UniProt P34972).
T2 construct: expressed in transfected cells; membrane preparation
Kind of test: Human CB2 Radioligand Binding Assay. Particulars: membranes from stably transfected CHO CB2 cells. As to the method: 1. Human CB2 Radioligand Binding Assay
This receptor binding filtration assay measures the receptor-ligand interactions of compounds by measuring ability to compete with a radiolabeled control ligand. Reactions were performed in 96 deep-well plate (Costar 3961) with a final volume of 600 ul. Compounds were added to each well either in single point (10 uM final) or dose-response. Compounds were delivered in DMSO or further diluted in incubation buffer to a final assay DMSO concentration of 1%. Incubation buffer (50 mM Tris-HCl pH 7.4, 2.5 mM EGTA, 5 mM MgCl2, 5.0 mg/ml fatty acid free BSA) was added to each well. Following buffer addition, [^3H] CP-55,940 was added. Tritiated CP-55,940 (Perkin Elmer) was used at the Kd determined from prior saturation binding experiments conducted on each lot of membranes. Membrane preparations from stably transfected CHO CB2 cells were added and the reaction was incubated for 90 minutes at 30° C. Unifilter GF/C filtration plates (Perkin Elmer) were pre-wet with 0.05% polyethylenimine. Samples were transferred to Unifilter plates and separation of unbound radioligand was achieved using a vacuum manifold (Millipore). Following thorough washing with 5 ml/well ice-cold wash buffer (50 mM Tris-HCl pH 7.4, 2.5 mM EGTA, 5 mM MgCl2, 0.5 mg/ml fatty acid free BSA), filterplates were dried completely. Betaplate Scint Scintillation cocktail (25 ul, Perkin Elmer) was applied and plates were read using Microbeta Trilux (Wallac). Data analysis was performed in Spotfire. Activity of the positive control (100 nM CP-55,940) was set as 100% efficacy.
Stable recombinant Human CB2-CHO cell membranes were prepared as follows: Chinese Hamster Ovarian (CHO) cells stably expressing human cannabinoid receptor type 2 were grown to 90% confluence in 15×100 mm culture dishes under puromycin selection (5 ug/ml) Cells were harvested from culture flasks using a cell scraper, were washed once with cold phosphate-buffered saline (calcium and magnesium free) and pelleted by centrifugation at 400 g for 5 min at 4° C. Cell pellet was washed once with cold phosphate-buffered saline and centrifuged again at 400×g for 5 min at 4° C. The pellet was suspended in ice-cold lysis buffer (10 mM Tris-HCl, 0.1 mM EDTA, containing […], pH 7.5) and homogenized in a chilled 7 ml glass dounce homogenizer using 50 strokes. The homogenate was centrifuged at 400 g for 15 min at 4° C. The cloudy supernatant was collected and centrifuged at 41000 g for 30 min at 4° C. The resulting pellet was washed with ice-cold sucrose-free lysis buffer and centrifuged again at 41000 g for 30 min at 4° C. The membrane pellet was suspended in sucrose-free storage buffer (10 mm Tris-HCl, 0.1 mM EDTA, pH 7.5) to a concentration of 2-3 mg protein/ml. Aliquots were flash frozen in liquid nitrogen and stored at −80° C. Concentration was determined using Dc protein assay kit (Bio-Rad).

Setting [3] is: competition with [3H] CP-55,940, read-out: CB2 Ligand Binding Asssay EC50.
Where [4] appears, read: CB2 Ligand Binding Asssay EC50, competition with [3H] CP-55,940.

T2 sequence (P34972 whole entry): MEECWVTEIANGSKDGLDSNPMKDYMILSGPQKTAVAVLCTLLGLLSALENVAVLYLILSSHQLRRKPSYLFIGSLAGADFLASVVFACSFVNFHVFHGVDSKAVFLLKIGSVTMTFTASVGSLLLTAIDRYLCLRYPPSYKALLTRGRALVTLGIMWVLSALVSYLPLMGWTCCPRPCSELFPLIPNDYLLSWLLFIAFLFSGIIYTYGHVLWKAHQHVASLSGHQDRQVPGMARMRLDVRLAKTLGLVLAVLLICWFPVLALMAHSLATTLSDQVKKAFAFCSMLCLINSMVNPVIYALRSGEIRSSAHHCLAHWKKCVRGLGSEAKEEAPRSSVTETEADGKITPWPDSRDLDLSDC
T1 sequence (P21554 whole entry): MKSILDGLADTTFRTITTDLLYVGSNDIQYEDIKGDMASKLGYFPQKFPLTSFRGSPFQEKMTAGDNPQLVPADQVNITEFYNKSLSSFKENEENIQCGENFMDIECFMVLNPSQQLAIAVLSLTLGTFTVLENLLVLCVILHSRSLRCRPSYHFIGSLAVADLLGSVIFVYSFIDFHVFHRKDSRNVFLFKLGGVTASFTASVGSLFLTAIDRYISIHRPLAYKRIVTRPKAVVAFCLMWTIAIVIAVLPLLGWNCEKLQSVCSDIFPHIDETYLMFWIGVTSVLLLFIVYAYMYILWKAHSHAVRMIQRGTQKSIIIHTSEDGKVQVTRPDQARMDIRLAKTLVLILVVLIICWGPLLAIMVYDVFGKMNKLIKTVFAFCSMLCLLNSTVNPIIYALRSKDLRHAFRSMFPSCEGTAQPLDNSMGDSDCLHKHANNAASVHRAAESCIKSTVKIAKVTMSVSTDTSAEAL

With `FC(F)(F)Oc1ccc2nc(-c3ccc(Cl)cc3)nc(N3CCCC3)c2c1` [Example 222, 2-(4-Chlorophenyl)-4-(pyrrolidin-1-yl)-6-(trifluoromethoxy)quinazoline], in test [1], the “Selectivity, CB2 vs. CB1” value is given as “− (− indicates ≦ 10−fold)”. Moreover, the concentration for a half-maximal effect (EC50) in test [2] (setting [3]) is under 1000 nM.

As for `CC(C)Nc1nc(CNS(=O)(=O)c2cccc3ccccc23)nc2ccccc12` [Example 304, N-((4-(Isopropylamino)quinazolin-2-yl)methyl)naphthalene-1-sulfonamide], the “Selectivity, CB2 vs. CB1” value in test [1] is “− (− indicates ≦ 10−fold)”. Moreover, the EC50 in test [2] (setting [3]) was under 1000 nM.

`CC(C)(C)c1ccc2c(N3CCCC3)nc(Nc3ccc(F)cc3F)nc2c1` [Example 288, 7-tert-Butyl-N-(2,4-difluorophenyl)-4-(pyrrolidin-1-yl)quinazolin-2-amine]: the “Selectivity, CB2 vs. CB1” value in test [1] is on record as “+ (+ indicates > 10−fold)”. Further, in test [2] (setting [3]), the EC50 was under 1000 nM.

For the molecule `Clc1ccc2c(N3CCCC3)nc(C3CCCCC3)nc2c1` [Example 160, 7-Chloro-2-cyclohexyl-4-(pyrrolidin-1-yl)quinazoline], the “Selectivity, CB2 vs. CB1” value in test [1] is “− (− indicates ≦ 10−fold)”. In test [2] (setting [3]), the EC50 is under 1000 nM.

As to `CN(Cc1ccccc1)c1nc(-c2ccccc2Cl)nc2ccccc12` [Example 55, N-Benzyl-2-(2-chlorophenyl)-N-methylquinazolin-4-amine], in test [1], the “Selectivity, CB2 vs. CB1” value is “− (− indicates ≦ 10−fold)”. In test [2] (setting [3]), the EC50 was under 1000 nM.

Take `Clc1ccccc1-c1nc(N2CCCC2)c2cccc(Cl)c2n1` [Example 227, 8-Chloro-2-(2-chlorophenyl)-4-(pyrrolidin-1-yl)quinazoline]: the “Selectivity, CB2 vs. CB1” value in test [1] was “− (− indicates ≦ 10−fold)”. The EC50 in test [2] (setting [3]) was under 1000 nM.

Regarding `CC(=O)N1CCN(c2nc(C(C)c3ccccc3C)nc3ccccc23)CC1` (stereo not shown) [Example 344, 1-(4-(2-(1-o-Tolylethyl)quinazolin-4-yl)piperazin-1-yl)ethanone], the “Selectivity, CB2 vs. CB1” value in test [1] is recorded as “+ (+ indicates > 10−fold)”. Also, the EC50 in test [2] (setting [3]) is under 1000 nM.

With `CCOC(=O)N1CCN(c2nc(-c3ccccc3Cl)nc3cccc(C(F)(F)F)c23)CC1` [Example 241, Ethyl 4-(2-(2-chlorophenyl)-5-(trifluoromethyl)quinazolin-4-yl)piperazine-1-carboxylate], the “Selectivity, CB2 vs. CB1” value in test [1] is listed as “+ (+ indicates > 10−fold)”. Also, the 50% effective concentration (EC50) in test [2] (setting [3]) is under 1000 nM.

As to `CCc1ccc2nc(-c3ccccc3Cl)nc(N3CCSCC3)c2c1` [Example 174, 4-(2-(2-Chlorophenyl)-6-ethylquinazolin-4-yl)thiomorpholine], the “Selectivity, CB2 vs. CB1” value in test [1] is given as “+ (+ indicates > 10−fold)”. Moreover, the EC50 in test [2] (setting [3]) is under 1000 nM.

As for `CCN(CC)C(=O)c1ccc2nc(-c3ccccc3Cl)nc(N3CCN(C(C)=O)CC3)c2c1` [Example 316, 4-(4-Acetylpiperazin-1-yl)-2-(2-chlorophenyl)-N,N-diethylquinazoline-6-carboxamide], the “Selectivity, CB2 vs. CB1” value in test [1] is “+ (+ indicates > 10−fold)”. Also, the EC50 in test [2] (setting [3]) was under 1000 nM.

Regarding `FC(F)(F)c1ccc(-c2nc(N3CCOCC3)c3ccccc3n2)cc1` [Example 43, 4-(2-(4-(Trifluoromethyl)phenyl)quinazolin-4-yl)morpholine], the “Selectivity, CB2 vs. CB1” value in test [1] is given as “+ (+ indicates > 10−fold)”. For the same molecule, the EC50 in test [2] (setting [3]) was under 1000 nM.

Regarding `c1ccc2c(N3CCCCC3)nc(C3CCCCC3)nc2c1` [Example 34, 2-Cyclohexyl-4-(piperidin-1-yl)quinazolines], in test [1], the “Selectivity, CB2 vs. CB1” value is “− (− indicates ≦ 10−fold)”. Further, the EC50 in test [2] (setting [3]) is under 1000 nM.

On to `Fc1cccc2nc(-c3ccccc3Cl)nc(N3CCCC3)c12` [Example 248, 2-(2-Chlorophenyl)-5-fluoro-4-(pyrrolidin-1-yl)quinazoline], for which the “Selectivity, CB2 vs. CB1” value in test [1] is given as “+ (+ indicates > 10−fold)”. Also, the EC50 in test [2] (setting [3]) is under 1000 nM.

As for `CCc1ccc2nc(-c3ccccc3Cl)nc(N3CCN(C)CC3)c2c1` [Example 173, 2-(2-Chlorophenyl)-6-ethyl-4-(4-methylpiperazin-1-yl)quinazoline], the “Selectivity, CB2 vs. CB1” value in test [1] is “+ (+ indicates > 10−fold)”. For the same molecule, in test [2] (setting [3]), the EC50 is under 1000 nM.

In the case of `O=C(N1CCN(c2nc(-c3ccccc3Cl)nc3ccccc23)CC1)C(F)(F)F` [Example 103, 1-(4-(2-(2-Chlorophenyl)quinazolin-4-yl)piperazin-1-yl)-2,2,2-trifluoroethanone], in test [1], the “Selectivity, CB2 vs. CB1” value is “− (− indicates ≦ 10−fold)”. The 50% effective concentration (EC50) in test [2] (setting [3]) was under 1000 nM.

For the molecule `CC(C)(C)c1ccc2nc(-c3ccccc3Cl)nc(N3CCCC3)c2c1` [Example 171, 6-tert-Butyl-2-(2-chlorophenyl)-4-(pyrrolidin-1-yl)quinazoline], in test [1], the “Selectivity, CB2 vs. CB1” value is “+ (+ indicates > 10−fold)”. In addition, the EC50 in test [2] (setting [3]) was under 1000 nM.

Consider `Cc1ccc(Cl)cc1N1CCN(c2nc(-c3ccccc3Cl)nc3ccccc23)CC1` [Example 67, 4-[4-(5-Chloro-2-methylphenyl)piperazin-1-yl]-2-(2-chlorophenyl) quinazoline], for which the “Selectivity, CB2 vs. CB1” value in test [1] is “− (− indicates ≦ 10−fold)”. For the same molecule, the EC50 in test [2] (setting [3]) was under 1000 nM.

Consider `CN(c1ccc(C(C)(C)C)cc1)c1nc(-c2ccc(OC(F)(F)F)cc2)nc2ccccc12` [Example 144, (4-tert-Butylphenyl)methyl-[2-(4-trifluoromethoxyphenyl)quinazolin-4-yl]amine], for which the “Selectivity, CB2 vs. CB1” value in test [1] is on record as “− (− indicates ≦ 10−fold)”. Besides, the EC50 in test [2] (setting [3]) was over 1000 nM.

`Fc1ccccc1-c1nc(N2CCCC2)c2c(Cl)cccc2n1` [Example 239, 5-Chloro-2-(2-fluorophenyl)-4-(pyrrolidin-1-yl)quinazoline]: the “Selectivity, CB2 vs. CB1” value in test [1] is listed as “+ (+ indicates > 10−fold)”. In test [2] (setting [3]), the EC50 is under 1000 nM.

Regarding `CCc1ccc2nc(-c3ccccc3Cl)nc(N3CCCC3)c2c1` [Example 176, 2-(2-Chlorophenyl)-6-ethyl-4-(pyrrolidin-1-yl)quinazoline], the “Selectivity, CB2 vs. CB1” value in test [1] is “+ (+ indicates > 10−fold)”. For the same molecule, the EC50 in test [2] (setting [3]) is under 1000 nM.

With `CC(C)S(=O)(=O)N1CCN(c2nc(-c3ccccc3Cl)nc3ccccc23)CC1` [Example 83, 2-(2-Chlorophenyl)-4-[4-(propane-2-sulfonyl)piperazin-1-yl]quinazoline], in test [1], the “Selectivity, CB2 vs. CB1” value was “− (− indicates ≦ 10−fold)”. The molecule also had an EC50 in test [2] (setting [4]) of over 1000 nM.

`CN1CCN(c2nc(-c3ccc(F)cc3F)nc3ccccc23)CC1` [Example 27, 2-(2,4-Difluorophenyl)-4-(4-methylpiperazin-1-yl)quinazoline]: the “Selectivity, CB2 vs. CB1” value in test [1] was “− (− indicates ≦ 10−fold)”. Further, the EC50 in test [2] (setting [3]) is under 1000 nM.

Consider `CCOC(=O)N1CCN(c2nc(-c3ccccc3Cl)nc3cc(C(=O)NC)ccc23)CC1` [Example 321, Ethyl 4-(2-(2-chlorophenyl)-7-(methylcarbamoyl)quinazolin-4-yl)piperazine-1-carboxylate], for which the “Selectivity, CB2 vs. CB1” value in test [1] is reported as “− (− indicates ≦ 10−fold)”. Besides, in test [2] (setting [3]), the EC50 is over 1000 nM.

As to `CC(C)(C)OC(=O)N1CCN(c2nc(-c3ccccc3Cl)nc3ccccc23)C(=O)C1` [Example 75, tert-Butyl 4-(2-(2-Chlorophenyl)quinazolin-4-yl)-3-oxopiperazine-1-carboxylate], in test [1], the “Selectivity, CB2 vs. CB1” value is “− (− indicates ≦ 10−fold)”. Further, the EC50 in test [2] (setting [4]) was over 1000 nM.

On to `Fc1ccccc1-c1nc(N2CCCC2)c2c(F)cccc2n1` [Example 282, 5-Fluoro-2-(2-fluorophenyl)-4-(pyrrolidin-1-yl)quinazoline], for which the “Selectivity, CB2 vs. CB1” value in test [1] is listed as “+ (+ indicates > 10−fold)”. Moreover, the EC50 in test [2] (setting [3]) was under 1000 nM.

Regarding `CN(CC1CCCCC1)c1nc(-c2ccccc2Cl)nc2ccccc12` [Example 194, 2-(2-Chlorophenyl)-N-(cyclohexylmethyl)-N-methylquinazolin-4-amine], in test [1], the “Selectivity, CB2 vs. CB1” value was “− (− indicates ≦ 10−fold)”. Also, in test [2] (setting [3]), the EC50 was under 1000 nM.
